We go through 6 molecules from US20240293394A1, “METHODS FOR TREATING ANTIPSYCHOTIC-INDUCED WEIGHT GAIN” (priority 2010, published 2024).

Read-outs that look alike come from different tables or passages of the source.

Data set [1] is described as follows: Olanzapine-related changes (body weight, adipose tissue, serum chemistry) in female cynomolgus monkeys. The data set is classed as in vivo. The procedure:
Clinical observations and weight gain were assessed over a 28-day treatment period. […] Beginning two weeks prior to the study, monkeys were given ad libitum access to a highly palatable, high caloric diet. On the day prior to the start of treatment, monkeys were weighed and assigned to groups using a randomized block design based on body weight (BW); average BW across the 3 groups was 3.1+0.08 kg on the day of randomization. Also, baseline whole body CT scans were taken on the day prior to initiation of treatments. […] A second CT scan was conducted on day 29.

Data set [2] has as its system ghrelin. The experiment in a line: Circulating ghrelin levels in conscious, unrestrained rats. The data set is classed as in vivo. The settings on record: 10 mg/kg PO, two hours post administration. The method, then: To determine whether Compound1 and naltrexone have any effect on circulating levels of ghrelin, conscious, unrestrained rats (low stress model) were administered Compound 1 and nalrextone (10 mg/kg, PO). Blood samples were collected and analyzed by bioanalytical for circulating levels of ghrelin at 0, 15, 30, 60, and 120 minutes most administration.

Data set [3] can be described thus: Olanzapine-related weight gain in female rats. Format: in vivo. From the text:
The rats were assigned to treatment groups using a random block design based on initial body weight.

For data set [4] the following is noted: patients; Taylor et al., Acta Psychiatr Scand. 2001; cited from earlier work.
Data set [5] relates to ghrelin. The settings on record: known in literature; cited from earlier work.
The mark [6] stands for this setting: co-administration of Compound 1 0.4 mg/kg IM with olanzapine, serum, Day 28.
[7] abbreviates: olanzapine with Compound 1 0.4 mg/kg IM once daily, 28 days.
Setting [8] is: olanzapine only, compared to the vehicle group.

Take `NC(=O)c1ccc2c(c1O)[C@]13CCN(CC4CC4)[C@H](C2)[C@]1(O)CCC(=O)C3` [Compound 1]: in data set [1] (setting [6]), the “effect on olanzapine-induced elevation in LDL concentrations” value is on record as “prevented” and the “effect on olanzapine-induced elevation in TGs” value was “prevented”. Further, the “effect on OLZ-induced changes (weight, adipose tissue accretion, TGs and LDLs)” value in data set [1] (co-administration of Compound 1 with olanzapine, 28 days) is listed as “mitigated”. In addition, in data set [1] (setting [7]), the “average body weight gain” value is 0.08 kg and the “average body weight gain, % of Day 0 BW” value stood at 2.6%.
Turning to `O=C1CC[C@@]2(O)[C@H]3Cc4ccc(O)c5c4[C@@]2(CCN3CC2CC2)[C@H]1O5` [naltrexone], the circulating ghrelin levels entry in data set [2] is listed as “significantly greater circulating ghrelin levels than Compound 1”. Moreover, in data set [3] (2 mg/kg SC concurrent with afternoon olanzapine (1 mg/kg PO twice daily), 10 days), the “effect on olanzapine-induced weight gain” value is recorded as “did not affect olanzapine-induced weight gain”.
`OCCOCCN1CCN(C2=Nc3ccccc3Sc3ccccc32)CC1` [quetiapine, 2-(2-(4-dibenzo[b,f][1,4]thiazepine-11-yl-1-piperazinyl)ethoxy)ethanol]: the “weight gain associated with atypical antipsychotic” value (from here on “weight gain associated”) in data set [4] is listed as “greatest”.
For the molecule `Cc1cc2c(s1)Nc1ccccc1N=C2N1CCN(C)CC1` [olanzapine, 2-methyl-4-(4-methyl-1-piperazinyl)-10H-thieno[2,3-b][1,5]benzodiazepine], in data set [3] (olanzapine alone 1 mg/kg PO twice daily, 10 consecutive days, vs vehicle control), the “weight gain (body weight)” value is “greater increases in weight gain”. Also, the circulating ghrelin levels entry in data set [5] is “increases circulating ghrelin levels”. In data set [1] (setting [8]), the “adipose tissue gain (CT scan)” value was “gained relatively more adipose tissue compared to the vehicle group” and the “location of adipose tissue deposition (CT scan)” value was “more abdominal fat accretion”.
Turning to `O=C1Cc2cc(CCN3CCN(c4nsc5ccccc45)CC3)c(Cl)cc2N1` [ziprasidone, 5-[2-[4-(1,2-benzisothiazol-3-yl)-1-piperazinyl]ethyl]-6-chloro-1,3-dihydro-2H-indol-2-one], the “weight gain associated” value in data set [4] was “less”.
As for `O=C1CCc2ccc(OCCCCN3CCN(c4cccc(Cl)c4Cl)CC3)cc2N1` [aripiprazole, 7-[4-[4-(2,3-dichlorophenyl)piperazin-1-yl]butoxy]-3,4-dihydro-1H-quinolin-2-one], the “weight gain associated” value in data set [4] was “less”.
